In paper PMC7316778 (Nature Communications, 2020):
Values joined by “and” are separate entries in the source; they are usually repeats but may differ in a detail not shown here. Equal entries are not always repeated. Where two headings read alike, the source gives them in different places.

Tests used:
PRKCA (PKC alpha) = PRKCA (PKC alpha) (Homo sapiens, UniProt P17252); experiment: SelectScreen kinase assay
Experimental: (§1) Selectivity profiling assays were performed by the Invitrogen SelectScreen™ Services. […] The concentration of ATP was selected to be equal to the KM, unless indicated otherwise.

BRAF = BRAF (Homo sapiens, UniProt P15056); experiment: SelectScreen kinase assay
Experimental: as §1

MAPKAPK2 = MAPKAPK2 (Homo sapiens, UniProt P49137); experiment: SelectScreen kinase assay
Chain of MAPKAPK2 (P49137 whole entry): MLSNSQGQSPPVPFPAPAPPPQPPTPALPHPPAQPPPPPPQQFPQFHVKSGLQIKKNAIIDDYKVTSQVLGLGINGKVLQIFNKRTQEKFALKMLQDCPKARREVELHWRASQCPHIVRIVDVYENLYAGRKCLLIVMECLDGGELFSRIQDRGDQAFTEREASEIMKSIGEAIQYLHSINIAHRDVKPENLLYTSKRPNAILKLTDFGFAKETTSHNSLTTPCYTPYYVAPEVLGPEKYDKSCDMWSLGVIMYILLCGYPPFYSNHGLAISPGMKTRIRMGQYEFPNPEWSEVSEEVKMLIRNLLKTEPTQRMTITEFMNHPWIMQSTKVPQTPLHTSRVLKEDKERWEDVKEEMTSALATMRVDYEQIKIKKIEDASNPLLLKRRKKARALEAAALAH
Experimental: as §1

MAPK14 (p38 alpha) = MAPK14 (p38 alpha) (Homo sapiens, UniProt Q16539); experiment: SelectScreen kinase assay
Chain of MAPK14 (p38 alpha) (Q16539 whole entry): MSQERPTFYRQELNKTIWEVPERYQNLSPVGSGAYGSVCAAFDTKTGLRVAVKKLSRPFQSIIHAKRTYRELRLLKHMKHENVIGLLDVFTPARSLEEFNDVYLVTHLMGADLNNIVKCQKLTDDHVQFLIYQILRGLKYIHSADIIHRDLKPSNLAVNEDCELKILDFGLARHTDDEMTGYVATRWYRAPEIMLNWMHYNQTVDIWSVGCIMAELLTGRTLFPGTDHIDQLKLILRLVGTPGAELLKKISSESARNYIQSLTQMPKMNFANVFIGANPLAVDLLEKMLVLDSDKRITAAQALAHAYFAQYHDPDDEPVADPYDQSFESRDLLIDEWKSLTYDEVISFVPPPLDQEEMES
Experimental: as §1

MKNK2 (MNK2) = MKNK2 (MNK2) (Homo sapiens, UniProt Q9HBH9); experiment: SelectScreen kinase assay
Chain of MKNK2 (MNK2) (Q9HBH9 whole entry, species assumed): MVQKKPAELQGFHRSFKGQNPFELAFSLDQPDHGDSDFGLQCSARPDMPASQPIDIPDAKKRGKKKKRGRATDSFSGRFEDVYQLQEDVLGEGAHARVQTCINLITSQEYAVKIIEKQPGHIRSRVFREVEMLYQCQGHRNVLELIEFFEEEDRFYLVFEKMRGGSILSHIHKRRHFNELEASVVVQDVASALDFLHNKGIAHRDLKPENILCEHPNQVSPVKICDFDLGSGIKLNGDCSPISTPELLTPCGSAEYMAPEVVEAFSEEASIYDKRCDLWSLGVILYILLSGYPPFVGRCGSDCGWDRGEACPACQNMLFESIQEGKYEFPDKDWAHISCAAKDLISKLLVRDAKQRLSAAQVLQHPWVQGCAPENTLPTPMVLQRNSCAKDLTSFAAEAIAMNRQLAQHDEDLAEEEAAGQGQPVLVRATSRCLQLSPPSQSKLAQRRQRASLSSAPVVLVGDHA
Experimental: as §1

MKNK1 (MNK1) = MKNK1 (MNK1) (Homo sapiens, UniProt Q9BUB5); experiment: SelectScreen kinase assay
Chain of MKNK1 (MNK1) (Q9BUB5 whole entry): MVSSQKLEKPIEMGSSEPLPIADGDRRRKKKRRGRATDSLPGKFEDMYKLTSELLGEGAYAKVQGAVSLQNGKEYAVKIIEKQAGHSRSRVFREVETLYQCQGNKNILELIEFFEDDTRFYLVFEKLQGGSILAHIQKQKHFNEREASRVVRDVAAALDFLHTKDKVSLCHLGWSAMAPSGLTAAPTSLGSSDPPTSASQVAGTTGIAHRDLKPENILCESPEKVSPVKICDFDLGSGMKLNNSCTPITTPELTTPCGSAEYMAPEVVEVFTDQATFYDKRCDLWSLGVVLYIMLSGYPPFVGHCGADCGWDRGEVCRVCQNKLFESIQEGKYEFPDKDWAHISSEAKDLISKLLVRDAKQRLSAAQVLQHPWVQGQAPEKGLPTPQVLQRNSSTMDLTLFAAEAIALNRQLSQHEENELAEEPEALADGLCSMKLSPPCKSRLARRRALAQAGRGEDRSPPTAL
Experimental: as §1

IGF1R = IGF1R (Homo sapiens, UniProt P08069); experiment: SelectScreen kinase assay
Experimental: as §1

CDK5/p35 = CDK5/p35 (Homo sapiens, UniProt Q00535); experiment: SelectScreen kinase assay
Chain of CDK5/p35 (Q00535 whole entry): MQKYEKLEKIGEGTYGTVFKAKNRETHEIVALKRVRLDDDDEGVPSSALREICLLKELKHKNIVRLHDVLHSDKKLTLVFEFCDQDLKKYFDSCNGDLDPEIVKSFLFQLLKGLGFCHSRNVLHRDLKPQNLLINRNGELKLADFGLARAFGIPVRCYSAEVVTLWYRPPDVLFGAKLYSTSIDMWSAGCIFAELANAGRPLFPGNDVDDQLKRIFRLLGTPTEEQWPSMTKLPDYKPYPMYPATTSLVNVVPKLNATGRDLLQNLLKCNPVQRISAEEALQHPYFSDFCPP
Chain of CDK5/p35 (Q15078 whole entry partner): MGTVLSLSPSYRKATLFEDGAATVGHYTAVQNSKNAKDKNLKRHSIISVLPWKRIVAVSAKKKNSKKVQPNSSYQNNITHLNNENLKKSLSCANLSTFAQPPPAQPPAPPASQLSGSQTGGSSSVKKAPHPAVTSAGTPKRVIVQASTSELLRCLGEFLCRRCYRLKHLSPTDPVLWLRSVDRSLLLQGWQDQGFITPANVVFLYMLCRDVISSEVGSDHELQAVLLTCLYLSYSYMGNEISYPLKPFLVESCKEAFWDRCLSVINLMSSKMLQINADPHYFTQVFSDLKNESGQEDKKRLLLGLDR
Experimental: as §1

FES^S700C HL-60 cells = experiment: CD11b surface expression, PMA-induced macrophage differentiation; format: cell-based, human; conditions: for CD11b-positive cells (%): Figure 6d, S700C
MAPK13 (p38 delta) = biological target: T1, MAPK13 (p38 delta) (Homo sapiens, UniProt O15264); experiment: SelectScreen kinase assay
T1 sequence (O15264 1-365): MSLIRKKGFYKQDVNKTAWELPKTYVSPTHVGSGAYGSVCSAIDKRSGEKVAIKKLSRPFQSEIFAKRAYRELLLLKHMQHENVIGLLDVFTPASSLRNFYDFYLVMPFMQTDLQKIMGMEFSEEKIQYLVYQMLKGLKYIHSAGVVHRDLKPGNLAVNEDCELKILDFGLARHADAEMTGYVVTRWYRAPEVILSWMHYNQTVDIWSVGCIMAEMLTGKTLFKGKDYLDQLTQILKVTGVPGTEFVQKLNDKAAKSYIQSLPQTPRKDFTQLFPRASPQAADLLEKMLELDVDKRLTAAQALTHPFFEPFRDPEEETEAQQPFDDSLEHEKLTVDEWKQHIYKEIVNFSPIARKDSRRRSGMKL
Experimental: as §1

PIM2 = PIM2 (Homo sapiens, UniProt Q9P1W9); experiment: SelectScreen kinase assay
Chain of PIM2 (Q9P1W9 whole entry): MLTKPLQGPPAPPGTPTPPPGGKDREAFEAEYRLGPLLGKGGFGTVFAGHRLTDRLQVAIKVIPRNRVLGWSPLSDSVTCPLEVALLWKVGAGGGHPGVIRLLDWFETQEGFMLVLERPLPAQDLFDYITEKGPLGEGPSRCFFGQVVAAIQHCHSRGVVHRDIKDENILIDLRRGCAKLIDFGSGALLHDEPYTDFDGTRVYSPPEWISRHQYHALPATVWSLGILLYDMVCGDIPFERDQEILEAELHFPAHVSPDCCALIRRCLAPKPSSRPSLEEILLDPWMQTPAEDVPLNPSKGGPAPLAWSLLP
Experimental: as §1

DYRK1B = DYRK1B (Homo sapiens, UniProt Q9Y463); experiment: SelectScreen kinase assay; conditions: 1 h, 1 μM WEL028, 1 h preincubation
Experimental: as §1

CDK14 (PFTK1)/cyclin Y = CDK14 (PFTK1)/cyclin Y (Homo sapiens, UniProt O94921); experiment: SelectScreen kinase assay
Experimental: as §1

ERN1 = ERN1 (Homo sapiens, UniProt O75460); experiment: SelectScreen kinase assay; conditions: for Inhibition at 1 µM (%): ERN1, LanthaScreen Binding
Chain of ERN1 (O75460 19-977): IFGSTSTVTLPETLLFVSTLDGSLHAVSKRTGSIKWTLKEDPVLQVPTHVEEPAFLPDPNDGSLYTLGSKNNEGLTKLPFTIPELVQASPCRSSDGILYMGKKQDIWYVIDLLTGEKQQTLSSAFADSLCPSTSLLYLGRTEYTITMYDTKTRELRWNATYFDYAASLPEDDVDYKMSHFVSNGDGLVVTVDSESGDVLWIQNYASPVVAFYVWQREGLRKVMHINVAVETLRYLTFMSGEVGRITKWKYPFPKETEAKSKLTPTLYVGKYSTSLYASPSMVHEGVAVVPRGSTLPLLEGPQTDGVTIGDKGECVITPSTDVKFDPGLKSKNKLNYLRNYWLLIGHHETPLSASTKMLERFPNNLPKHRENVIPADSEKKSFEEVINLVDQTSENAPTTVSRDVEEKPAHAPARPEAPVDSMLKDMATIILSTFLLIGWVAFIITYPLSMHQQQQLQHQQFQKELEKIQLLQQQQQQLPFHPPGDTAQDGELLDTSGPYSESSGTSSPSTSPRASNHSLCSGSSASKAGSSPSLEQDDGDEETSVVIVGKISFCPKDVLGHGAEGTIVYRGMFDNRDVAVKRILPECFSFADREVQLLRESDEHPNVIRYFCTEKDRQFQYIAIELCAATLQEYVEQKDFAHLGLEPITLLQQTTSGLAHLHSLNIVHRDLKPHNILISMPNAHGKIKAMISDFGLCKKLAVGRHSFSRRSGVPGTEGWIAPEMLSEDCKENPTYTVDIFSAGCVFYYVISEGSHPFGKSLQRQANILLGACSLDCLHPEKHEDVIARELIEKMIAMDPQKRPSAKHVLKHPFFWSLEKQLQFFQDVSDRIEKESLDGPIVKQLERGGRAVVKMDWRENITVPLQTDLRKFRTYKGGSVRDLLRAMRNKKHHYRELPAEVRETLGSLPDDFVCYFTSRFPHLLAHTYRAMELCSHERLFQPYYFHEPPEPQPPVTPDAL
Experimental: as §1

CASK = biological target: T2, CASK (Homo sapiens, UniProt O14936); experiment: SelectScreen kinase assay; conditions: for Inhibition at 1 µM (%): CASK, LanthaScreen Binding
T2 sequence (O14936 1-926): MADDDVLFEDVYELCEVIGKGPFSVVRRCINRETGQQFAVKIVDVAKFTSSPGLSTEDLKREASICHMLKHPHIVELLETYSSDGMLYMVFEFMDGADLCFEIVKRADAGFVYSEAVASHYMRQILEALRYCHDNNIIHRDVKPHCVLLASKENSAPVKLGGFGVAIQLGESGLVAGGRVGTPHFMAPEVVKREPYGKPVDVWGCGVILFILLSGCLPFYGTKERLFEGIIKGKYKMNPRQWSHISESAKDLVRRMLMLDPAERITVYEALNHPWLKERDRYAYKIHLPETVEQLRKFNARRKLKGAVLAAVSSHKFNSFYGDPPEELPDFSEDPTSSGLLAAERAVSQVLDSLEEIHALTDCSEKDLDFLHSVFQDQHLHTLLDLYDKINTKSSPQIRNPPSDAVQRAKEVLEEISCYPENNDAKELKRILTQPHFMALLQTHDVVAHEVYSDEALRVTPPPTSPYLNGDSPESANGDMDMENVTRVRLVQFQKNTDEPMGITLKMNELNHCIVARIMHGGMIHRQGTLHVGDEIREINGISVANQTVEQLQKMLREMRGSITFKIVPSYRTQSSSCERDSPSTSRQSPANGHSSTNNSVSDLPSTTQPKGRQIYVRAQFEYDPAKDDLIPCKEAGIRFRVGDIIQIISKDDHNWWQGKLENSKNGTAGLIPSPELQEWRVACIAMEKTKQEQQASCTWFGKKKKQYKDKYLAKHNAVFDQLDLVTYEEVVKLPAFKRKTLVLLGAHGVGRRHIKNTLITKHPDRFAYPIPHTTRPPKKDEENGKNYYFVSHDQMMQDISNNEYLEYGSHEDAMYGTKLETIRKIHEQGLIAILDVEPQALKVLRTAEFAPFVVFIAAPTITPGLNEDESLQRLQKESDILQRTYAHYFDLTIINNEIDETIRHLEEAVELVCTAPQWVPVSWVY
Experimental: as §1

[1] = 1 h, 1 μM WEL028, 1 h preincubation

Chain of BRAF (P15056 whole entry, species assumed): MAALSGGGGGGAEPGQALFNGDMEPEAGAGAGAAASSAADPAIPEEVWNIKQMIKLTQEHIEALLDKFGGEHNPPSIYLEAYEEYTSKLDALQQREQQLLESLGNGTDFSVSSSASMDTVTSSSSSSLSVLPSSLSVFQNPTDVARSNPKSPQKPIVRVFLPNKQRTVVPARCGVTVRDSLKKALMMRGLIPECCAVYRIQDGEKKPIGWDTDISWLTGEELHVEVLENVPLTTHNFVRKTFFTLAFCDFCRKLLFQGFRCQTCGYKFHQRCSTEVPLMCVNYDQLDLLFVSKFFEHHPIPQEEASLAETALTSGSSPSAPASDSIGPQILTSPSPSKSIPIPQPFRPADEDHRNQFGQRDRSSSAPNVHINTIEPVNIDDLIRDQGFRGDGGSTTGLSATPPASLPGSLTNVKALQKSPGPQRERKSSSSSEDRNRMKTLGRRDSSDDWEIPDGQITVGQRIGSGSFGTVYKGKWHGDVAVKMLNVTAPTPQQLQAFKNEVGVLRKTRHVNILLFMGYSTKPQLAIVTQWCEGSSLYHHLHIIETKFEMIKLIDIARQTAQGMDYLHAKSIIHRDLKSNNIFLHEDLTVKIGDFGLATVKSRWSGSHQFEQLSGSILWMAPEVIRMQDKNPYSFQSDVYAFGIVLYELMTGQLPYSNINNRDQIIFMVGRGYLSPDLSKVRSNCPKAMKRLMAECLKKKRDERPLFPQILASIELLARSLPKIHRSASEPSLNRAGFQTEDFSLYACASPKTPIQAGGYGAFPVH

In the case of `C#CCOc1ccc(Nc2ncc(Cl)c(Nc3ccccc3NC(=O)C=C)n2)c(OC)c1` [Compound 6], the inhibition at 1 µM (PRKCA (PKC alpha); [1]) is reported as 14%, the “Inhibition at 1 µM (%)” value (PRKCA (PKC alpha); PRKCA (PKC alpha), 1 µM, ZLYTE, ATP Km app, listed as WEL028, 1 µM) is reported as 10% and the inhibition at 1 µM (PRKCA (PKC alpha); read-out: Inhibition at 1 µM (%), PRKCA (PKC alpha), 1 µM, ZLYTE, ATP Km app) is reported as 19%. The IC50 (BRAF) was 100 nM, the inhibition at 1 µM (BRAF; [1]) was 94% and the inhibition at 10 µM (BRAF; 1 h, log[inhibitor] (M) -5.00, ZLYTE, ATP 100) was 98%. The inhibition at 3.311 µM (BRAF; 1 h, log[inhibitor] (M) -5.48, ZLYTE, ATP 100) was 100%, the inhibition at 1.122 µM (BRAF; 1 h, log[inhibitor] (M) -5.95, ZLYTE, ATP 100) was 96% and the inhibition at 0.3715 µM (BRAF; 1 h, log[inhibitor] (M) -6.43, ZLYTE, ATP 100) was 65%. The inhibition at 0.123 µM (BRAF; 1 h, log[inhibitor] (M) -6.91, ZLYTE, ATP 100) was 53%, the inhibition at 0.04074 µM (BRAF; 1 h, log[inhibitor] (M) -7.39, ZLYTE, ATP 100) was 28% and the inhibition at 0.0138 µM (BRAF; 1 h, log[inhibitor] (M) -7.86, ZLYTE, ATP 100) was 15%. For the same molecule, the inhibition at 0.001514 µM (BRAF; 1 h, log[inhibitor] (M) -8.82, ZLYTE, ATP 100) was 3%, the “Inhibition at 1 µM (%)” value (BRAF; BRAF, 1 µM, ZLYTE, ATP 100, listed as WEL028, 1 µM) was 97% and the inhibition at 1 µM (BRAF; read-out: Inhibition at 1 µM (%), BRAF, 1 µM, ZLYTE, ATP 100) was 90%. The inhibition at 1 µM (MAPKAPK2; [1]) was 7%, the “Inhibition at 1 µM (%)” value (MAPKAPK2; MAPKAPK2, 1 µM, ZLYTE, ATP Km app, listed as WEL028, 1 µM) was 5% and the inhibition at 1 µM (MAPKAPK2; read-out: Inhibition at 1 µM (%), MAPKAPK2, 1 µM, ZLYTE, ATP Km app) was 8%. For the same molecule, the “Inhibition (%)” value (MAPK14 (p38 alpha); 1 μM WEL028, 1 h preincubation) was 7%, the “Inhibition at 1 µM (%)” value (MAPK14 (p38 alpha); MAPK14 (p38 alpha) Direct, 1 µM, ZLYTE, ATP Km app, listed as WEL028, 1 µM) was 4% and 10% and the IC50 (MKNK2 (MNK2)) was 100 nM. The inhibition at 1 µM (MKNK2 (MNK2); [1]) was 93%, the inhibition at 10 µM (MKNK2 (MNK2); 1 h, log[inhibitor] (M) -5.00, LanthaScreen Binding) was 83% and the inhibition at 3.311 µM (MKNK2 (MNK2); 1 h, log[inhibitor] (M) -5.48, LanthaScreen Binding) was 97%. The inhibition at 1.122 µM (MKNK2 (MNK2); 1 h, log[inhibitor] (M) -5.95, LanthaScreen Binding) was 94%, the inhibition at 0.3715 µM (MKNK2 (MNK2); 1 h, log[inhibitor] (M) -6.43, LanthaScreen Binding) was 82% and the inhibition at 0.123 µM (MKNK2 (MNK2); 1 h, log[inhibitor] (M) -6.91, LanthaScreen Binding) was 54%. For the same molecule, the inhibition at 0.0138 µM (MKNK2 (MNK2); 1 h, log[inhibitor] (M) -7.86, LanthaScreen Binding) was 13%, the inhibition at 0.0004898 µM (MKNK2 (MNK2); 1 h, log[inhibitor] (M) -9.31, LanthaScreen Binding) was 4% and the Apparent fold selectivity (MKNK2 (MNK2); IC50 on that kinase divided by IC50 on FES^S700C) was 23 fold. For the same molecule, the “Inhibition at 1 µM (%)” value (MKNK2 (MNK2); MKNK2 (MNK2), 1 µM, LanthaScreen Binding, listed as WEL028, 1 µM) was 96%, the inhibition at 1 µM (MKNK2 (MNK2); read-out: Inhibition at 1 µM (%), MKNK2 (MNK2), 1 µM, LanthaScreen Binding) was 89% and the inhibition at 1 µM (MKNK1 (MNK1); [1]) was 13%. For the same molecule, the “Inhibition at 1 µM (%)” value (MKNK1 (MNK1); MKNK1 (MNK1), 1 µM, ZLYTE, ATP Km app) was 21%, the inhibition at 1 µM (IGF1R; [1]) was 15% and the inhibition at 1 µM (IGF1R; read-out: Inhibition at 1 µM (%), IGF1R, 1 µM, ZLYTE, ATP Km app) was 14%. The inhibition at 1 µM (CDK5/p35; [1]) was -4%, the “Inhibition at 1 µM (%)” value (CDK5/p35; CDK5/p35, 1 µM, ZLYTE, ATP Km app, listed as WEL028, 1 µM) was -8% and 0% and the “Increase in CD11b expression” value (FES^S700C HL-60 cells; 100 nM WEL028) was 3%. The “Percentage of CD11b-positive cells” value (FES^S700C HL-60 cells; 100 nM WEL028) was “minimally affected”, the CD11b expression (FES^S700C HL-60 cells; 1 µM WEL028) was “completely failed to express CD11b” and the “CD11b-positive cells (%)” value (FES^S700C HL-60 cells; WEL028 100 nM) was 93.479% and 95.735% and 92.126%. For the same molecule, the “CD11b-positive cells (%)” value (FES^S700C HL-60 cells; WEL028 1 µM) was 19.047% and 18.635% and 20.613%, the inhibition at 1 µM (MAPK13 (p38 delta); [1]) was 5% and the “Inhibition at 1 µM (%)” value (MAPK13 (p38 delta); MAPK13 (p38 delta), 1 µM, ZLYTE, ATP Km app, listed as WEL028, 1 µM) was 6%. For the same molecule, the inhibition at 1 µM (MAPK13 (p38 delta); read-out: Inhibition at 1 µM (%), MAPK13 (p38 delta), 1 µM, ZLYTE, ATP Km app) was 4%, the inhibition at 1 µM (PIM2; [1]) was -4% and the “Inhibition at 1 µM (%)” value (PIM2; PIM2, 1 µM, ZLYTE, ATP Km app) was -3%. The inhibition at 1 µM (DYRK1B) was 0%, the “Inhibition (%)” value (CDK14 (PFTK1)/cyclin Y; 1 μM WEL028, 1 h preincubation) was -7% and the “Inhibition at 1 µM (%)” value (CDK14 (PFTK1)/cyclin Y; CDK14 (PFTK1)/cyclin Y, 1 µM, LanthaScreen Binding) was -14%. For the same molecule, the inhibition at 1 µM (ERN1; [1]) was 8%, the “Inhibition at 1 µM (%)” value (ERN1) was 13% and the “Inhibition at 1 µM (%)” value (ERN1; listed as WEL028, 1 µM) was 4%. For the same molecule, the inhibition at 1 µM (CASK; [1]) was -7%, the “Inhibition at 1 µM (%)” value (CASK) was -11% and the “Inhibition at 1 µM (%)” value (CASK; listed as WEL028, 1 µM) was -4%.
